Test results as given in PubChem BioAssay AID2060483 (Molecular Pharmacology Branch, DTP, NCI, 2025).
Blank lines part the entries; values can stand above or below the compound they belong to.

Test system: K24384-001-R-PDC complex spheroids, viability
Experiment: Anticancer human tumor K24384-001-R-PDC patient-derived pancreatic adenocarcinoma cell line growth inhibition [GQUAD]
Conditions: for IC50: curve of first compound; for viability, T/C: stronger effect = lower value
Method in brief: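 Multi-cell-type spheroids of tumor cells with HUVEC and mesenchymal stem cells, treated with drug combinations. Concentrations descend in half-log steps from near clinical Cmax, or from 10 microM where Cmax is unknown; viability read-out.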

[1] = second compound 0.0316 µM, first compound 0.0316 µM
[2] = second compound 0.0316 µM, first compound 0.1 µM
[3] = second compound 0.0316 µM, first compound 0.316 µM
[4] = second compound 0.0316 µM, first compound 1 µM
[5] = second compound 0.0316 µM, first compound 3.16 µM
[6] = second compound 0.0316 µM, first compound 10 µM
[7] = second compound 0.1 µM, first compound 0.0316 µM
[8] = second compound 0.1 µM, first compound 0.1 µM
[9] = second compound 0.1 µM, first compound 0.316 µM
[10] = second compound 0.1 µM, first compound 1 µM
[11] = second compound 0.1 µM, first compound 3.16 µM
[12] = second compound 0.1 µM, first compound 10 µM
[13] = second compound 0.316 µM, first compound 0.0316 µM
[14] = second compound 0.316 µM, first compound 0.1 µM
[15] = second compound 0.316 µM, first compound 0.316 µM
[16] = second compound 0.316 µM, first compound 1 µM
[17] = second compound 0.316 µM, first compound 3.16 µM
[18] = second compound 0.316 µM, first compound 10 µM
[19] = second compound 1 µM, first compound 0.0316 µM
[20] = second compound 1 µM, first compound 0.1 µM
[21] = second compound 1 µM, first compound 0.316 µM
[22] = second compound 1 µM, first compound 1 µM
[23] = second compound 1 µM, first compound 3.16 µM
[24] = second compound 1 µM, first compound 10 µM
[25] = second compound 3.16 µM, first compound 0.0316 µM
[26] = second compound 3.16 µM, first compound 0.1 µM
[27] = second compound 3.16 µM, first compound 0.316 µM
[28] = second compound 3.16 µM, first compound 1 µM
[29] = second compound 3.16 µM, first compound 3.16 µM
[30] = second compound 3.16 µM, first compound 10 µM
[31] = second compound 10 µM, first compound 0.0316 µM
[32] = second compound 10 µM, first compound 0.1 µM
[33] = second compound 10 µM, first compound 0.316 µM
[34] = second compound 10 µM, first compound 1 µM
[35] = second compound 10 µM, first compound 3.16 µM
[36] = second compound 10 µM, first compound 10 µM
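Also: spheroids exposed to compounds for seven days.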

Structure (SMILES): COc1cccc2c1C(=O)c1c(O)c3c(c(O)c1C2=O)CC(O)(C(=O)CO)CC3OC1CC(N)C(O)C(C)O1 (stereo not drawn) + Cc1[nH]c2ccc(F)cc2c1-c1nc2c3cccnc3c3ncccc3c2[nH]1
IC50 (second compound 0.0316 µM): 191 nM
IC50 (second compound 0.1 µM): 204 nM
IC50 (second compound 0.316 µM): 203 nM
IC50 (second compound 1 µM): 219 nM
IC50 (second compound 3.16 µM): 126 nM
IC50 (second compound 10 µM): 80.1 nM
viability, T/C [1]: 89.8%
viability, T/C [2]: 70%
viability, T/C [3]: 33.1%
viability, T/C [4]: 17.6%
viability, T/C [5]: 5.95%
viability, T/C [6]: 4.77%
viability, T/C [7]: 78.8%
viability, T/C [8]: 64.8%
viability, T/C [9]: 39.2%
viability, T/C [10]: 25.6%
viability, T/C [11]: 8.24%
viability, T/C [12]: 4.61%
viability, T/C [13]: 74.2%
viability, T/C [14]: 63.4%
viability, T/C [15]: 40.9%
viability, T/C [16]: 22.4%
viability, T/C [17]: 6.31%
viability, T/C [18]: 4.4%
viability, T/C [19]: 85.4%
viability, T/C [20]: 75.3%
viability, T/C [21]: 32.2%
viability, T/C [22]: 27.8%
viability, T/C [23]: 7.66%
viability, T/C [24]: 4.24%
viability, T/C [25]: 70.6%
viability, T/C [26]: 55.1%
viability, T/C [27]: 32%
viability, T/C [28]: 28%
viability, T/C [29]: 7.01%
viability, T/C [30]: 1.96%
viability, T/C [31]: 60.5%
viability, T/C [32]: 49.3%
viability, T/C [33]: 28.1%
viability, T/C [34]: 20%
viability, T/C [35]: 5.65%
viability, T/C [36]: 1.85%

Structure (SMILES): CC1COCCN1c1cc(C2(O)CC3CCC(C2)O3)c2cnn(-c3ccn[nH]3)c2n1 (stereo not drawn) + Cc1[nH]c2ccc(F)cc2c1-c1nc2c3cccnc3c3ncccc3c2[nH]1
IC50 (second compound 0.0316 µM): 230 nM
IC50 (second compound 0.1 µM): 209 nM
IC50 (second compound 0.316 µM): 179 nM
IC50 (second compound 1 µM): 182 nM
IC50 (second compound 3.16 µM): 139 nM
IC50 (second compound 10 µM): 61.1 nM
viability, T/C [1]: 75.8%
viability, T/C [2]: 57.4%
viability, T/C [3]: 51.6%
viability, T/C [4]: 27%
viability, T/C [5]: 24.5%
viability, T/C [6]: 19.8%
viability, T/C [7]: 65.6%
viability, T/C [8]: 82.1%
viability, T/C [9]: 36.4%
viability, T/C [10]: 30.2%
viability, T/C [11]: 33.5%
viability, T/C [12]: 22.7%
viability, T/C [13]: 69%
viability, T/C [14]: 54.9%
viability, T/C [15]: 44.2%
viability, T/C [16]: 32.4%
viability, T/C [17]: 32.9%
viability, T/C [18]: 19.1%
viability, T/C [19]: 77.3%
viability, T/C [20]: 59.7%
viability, T/C [21]: 37.2%
viability, T/C [22]: 35.2%
viability, T/C [23]: 32.4%
viability, T/C [24]: 18.1%
viability, T/C [25]: 53.8%
viability, T/C [26]: 63.4%
viability, T/C [27]: 28.4%
viability, T/C [28]: 30.5%
viability, T/C [29]: 28.7%
viability, T/C [30]: 13.2%
viability, T/C [31]: 55.3%
viability, T/C [32]: 50.9%
viability, T/C [33]: 26.2%
viability, T/C [34]: 28.4%
viability, T/C [35]: 22.9%
viability, T/C [36]: 9.97%

IC50 (second compound 0.0316 µM): 37.4 nM
IC50 (second compound 0.1 µM): < 31.6 nM
IC50 (second compound 0.316 µM): < 31.6 nM
IC50 (second compound 1 µM): < 31.6 nM
IC50 (second compound 3.16 µM): < 31.6 nM
IC50 (second compound 10 µM): < 31.6 nM
Structure (SMILES): CC(=O)O[C@H]1C(=O)[C@@]2(C)[C@H]([C@H](OC(=O)c3ccccc3)[C@]3(O)C[C@H](OC(=O)[C@H](O)[C@@H](NC(=O)c4ccccc4)c4ccccc4)C(C)=C1C3(C)C)[C@]1(OC(C)=O)CO[C@@H]1C[C@@H]2O + Cc1cnc(CNC(=O)c2c(=O)c3ccc(N4CCCN(C)CC4)nc3n3c2sc2ccccc23)cn1
viability, T/C [1]: 53.4%
viability, T/C [2]: 27.2%
viability, T/C [3]: 38.1%
viability, T/C [4]: 23.7%
viability, T/C [5]: 29.2%
viability, T/C [6]: 31.1%
viability, T/C [7]: 47.4%
viability, T/C [8]: 35.2%
viability, T/C [9]: 30.4%
viability, T/C [10]: 31.8%
viability, T/C [11]: 29.5%
viability, T/C [12]: 36.8%
viability, T/C [13]: 47%
viability, T/C [14]: 39.9%
viability, T/C [15]: 36.5%
viability, T/C [16]: 29.9%
viability, T/C [17]: 39.1%
viability, T/C [18]: 34.3%
viability, T/C [19]: 32.4%
viability, T/C [20]: 36.2%
viability, T/C [21]: 26.6%
viability, T/C [22]: 37.4%
viability, T/C [23]: 41.9%
viability, T/C [24]: 34.4%
viability, T/C [25]: 31.9%
viability, T/C [26]: 33.5%
viability, T/C [27]: 32.6%
viability, T/C [28]: 28.9%
viability, T/C [29]: 32.5%
viability, T/C [30]: 36.5%
viability, T/C [31]: 0.14%
viability, T/C [32]: 0.18%
viability, T/C [33]: 0.21%
viability, T/C [34]: 0.18%
viability, T/C [35]: 0.19%
viability, T/C [36]: 0.2%

Structure (SMILES): Nc1ccn(C2OC(CO)C(O)C2(F)F)c(=O)n1 (stereo not drawn) + Cc1[nH]c2ccc(F)cc2c1-c1nc2c3cccnc3c3ncccc3c2[nH]1
IC50 (second compound 0.0316 µM): 215 nM
IC50 (second compound 0.1 µM): 208 nM
IC50 (second compound 0.316 µM): 318 nM
IC50 (second compound 1 µM): 290 nM
IC50 (second compound 3.16 µM): 240 nM
IC50 (second compound 10 µM): 110 nM
viability, T/C [1]: 87.6%
viability, T/C [2]: 62.5%
viability, T/C [3]: 44.5%
viability, T/C [4]: 30.6%
viability, T/C [5]: 26.2%
viability, T/C [6]: 23.2%
viability, T/C [7]: 75.7%
viability, T/C [8]: 66.4%
viability, T/C [9]: 36.7%
viability, T/C [10]: 35.8%
viability, T/C [11]: 26.4%
viability, T/C [12]: 19.8%
viability, T/C [13]: 71.1%
viability, T/C [14]: 69.5%
viability, T/C [15]: 46.9%
viability, T/C [16]: 34.8%
viability, T/C [17]: 27.9%
viability, T/C [18]: 20.6%
viability, T/C [19]: 81.3%
viability, T/C [20]: 70%
viability, T/C [21]: 42.5%
viability, T/C [22]: 38.8%
viability, T/C [23]: 33.3%
viability, T/C [24]: 22.1%
viability, T/C [25]: 69.4%
viability, T/C [26]: 60.9%
viability, T/C [27]: 41.3%
viability, T/C [28]: 43.2%
viability, T/C [29]: 25.3%
viability, T/C [30]: 19.7%
viability, T/C [31]: 54.9%
viability, T/C [32]: 52.6%
viability, T/C [33]: 39.6%
viability, T/C [34]: 30.7%
viability, T/C [35]: 19.8%
viability, T/C [36]: 15.1%
